{"source": "patent EP4537820A1", "about": "“COMPOUND AND COMBINATIONS COMPRISING SAID COMPOUND TO IMPROVE IMMUNE RESPONSE” (Institut Gustave-Roussy, priority 2023, dated 2025)", "key": {"20S proteasome": {"tested_on": "T1, 20S proteasome", "T1 construct": "purified 20S proteasome from human erythrocytes; purchased Biotechne E-360-050; host or cells: human erythrocytes", "experiment": "Second confirmatory counter-screen of hits on the proteasome alone", "assay_type": "biochemical, human", "details": "counter-screen on 20S proteasome only, without REGγ", "protocol": "(§1) The 3 chemical libraries tested were obtained from the NIH : The Natural Products set (NP.V) consisting of 390 compounds, the Oncology Approved Drugs set (AOD.IX) consisting of 147 FDA-approved compounds and the Diversity set (DIV.VI) consisting of 1584 compounds. Libraries were prepared and screened with a Biomek FXP workstation in 384 well plates. Compounds activity was assessed using a fluorescence activity test of the proteasome using the Bz-VGR-AMC fluorogenic substrate (#BML-BW9375-0005, Enzo Life Sciences). 50µM of the fluorogenic substrate was used with 20µM of the tested compound, and 2nM of 20S human proteasome (#E-360-050, Biotechne) in presence or absence of 50nM of human REGγ (#E-384-MTO, Biotechne). After preparation of the mix, plates were incubated for 2h at 37°C before being read on a Spectramax i3 microplate reader from Molecular devices (Excitation wavelength : 345nm; Emission wavelength : 445nm). […]\nUsing the control condition without REGγ, they then eliminated compounds that were inhibiting the 20S proteasome, using the 95% interval of confidence of the 20S control for each plate. […] Fluorescence was measured every minute with a FLUOstar plate reader (BMG Labtech). […]\n(§2) After conducting the screening and validating the quality control using a custom algorithm, they analyzed the data to select their hits. […]"}, "[1]": {"tested_on": "MCA205-Glob-SL8-intron cells", "experiment": "MHC-I expression, antigen presentation and PD-L1 surface expression by flow cytometry", "assay_type": "cell-based, mouse", "details": "24 hours", "protocol": "2×10^5 of MCA205-Glob-SL8-intron cells were plated in 6-well plates and incubated overnight. The next day cells were treated with different concentrations of drugs for 24h. After treatment, cells were harvested with trypsin before being stained with Zombie Aqua (#423102, Biolegend) and antibodies presented in Table 1 following the protocol provided by the supplier. Samples were acquired on a FACS LSRFortessa X20 (BD Biosciences) and data was analysed with FlowJo (V10) software (TreeStar, Inc.). Table 1: Panels of antibodies for the study of surface expression of MHC-I molecules and SIINFEKL presentation in MCA205-Glob-SL8-intron.\nInventors previously reported a novel and unexpected role of the REGγ-20S complex in the degradation of MHC-I peptides in cancer. In order to elucidate the potential impact of compound 58 on the REGγ-20S complex's modulation of antigenic peptide degradation, they treated mouse MCA205 cells stably expressing the globin-SL8-intron construct with increasing concentrations of compound 58 for 24 hours.\nAdditionally, they explored the impact of compound 58 on the expression of MHC-I on the surface of MCA205 cells stably expressing the globin-SL8-intron construct. After treating these cells with varying doses of compound 58 for 24 hours, they assessed the levels of murine MHC-I H2-K^b and H2-D^b using flow cytometry. The percentage of cells labeled positively for H2-K^b and H2-D^b in the treated conditions was compared to that in the DMSO control condition.\nFurthermore, inventors investigated whether compound 58 had the capability to alter PD-L1 expression on the cell surface of treated tumor cells. To examine this, they exposed MCA205 cells stably expressing the globin-SL8-intron construct to varying concentrations of compound 58 for 24 hours and subsequently assessed PD-L1 expression levels via flow cytometry."}, "20S-REGγ complex": {"target": "T2, 20S-REGγ complex (Homo sapiens, UniProt P61289)", "T2 construct": "purchased Biotechne E-360-050 (20S); E-384-MTO (REGγ); host or cells: 20S from human erythrocytes", "T2 sequence (P61289 whole entry, one chain of several)": "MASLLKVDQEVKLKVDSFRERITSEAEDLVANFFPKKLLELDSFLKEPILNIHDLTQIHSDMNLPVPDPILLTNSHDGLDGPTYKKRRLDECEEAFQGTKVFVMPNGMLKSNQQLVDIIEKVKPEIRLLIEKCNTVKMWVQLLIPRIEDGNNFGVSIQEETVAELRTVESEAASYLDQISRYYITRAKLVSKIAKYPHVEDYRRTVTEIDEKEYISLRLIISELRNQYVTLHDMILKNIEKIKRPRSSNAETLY", "experiment": "First confirmatory counter-screen of hits, fluorescence kinetic proteasome activity test", "assay_type": "biochemical", "details": "counter-screen at 10, 20 and 40µM, 90min kinetic assay", "protocol": "as §1, with “50µM of the fluorogenic substrate was used with 20µM of the tested compound, and 2nM of 20S human proteasome (#E-360-050, Biotechne) in presence or absence of 50nM of human REGγ (#E-384-MTO, Biotechne).” left out\nAfter QC verification, each plate was normalized to the mean of the VGR control. For every quadruplicate the most different value from the mean was eliminated and the fluorescence mean for each compound was calculated on the 3 remaining values. The percentage of inhibition of a compound was calculated according to, as follows : %Inhibition(compound) = (MeanREG,plate −Meancompound)/(MeanREG,plate −Mean20S,plate) × 100, [formula] for the condition with REG[…]. […]\nas §2"}, "REGγ": {"target": "REGγ (Homo sapiens, UniProt P61289)", "sequence (P61289 whole entry)": "as the sequence (P61289 whole entry, one chain of several) above", "experiment": "Thermal Shift Assay (nanoDSF) with REGγ", "assay_type": "binding", "details": "REGγ 500nM, compound at 40X (20µM, 0,4% DMSO)", "protocol": "Thermal shift assay was carried out with nano differential scanning fluorimetry (nanoDSF) using the Tycho NT.6 from Nanotemper and was performed at the I2BC platform (Gif-sur-Yvette). Samples were prepared in a final volume of 25µL in a 96-well plate prior to be loaded on the Tycho capillaries. Proteins were diluted in activity buffer (20mM Tris-HCl pH 7.4 and 20mM NaCl). After optimisation, REGγ concentration was set to 500nM and 20S concentration to 50nM. Compounds concentrations were determined as ratios to protein concentration and to stay below 0,5% of DMSO; accordingly, compounds with REGγ were tested at 40X (20µM, 0,4% DMSO) and at 100X (5µM, 0,1% DMSO) with 20S. A thermal ramp was applied from 20 to 95°C and fluorescence was followed at 350nm and 330 nm, measuring intrinsic fluorescence of the proteins from tryptophan and tyrosine residues. Binding was detected as a shift in the inflection temperature (Ti) compared to the DMSO control.\nTo assess the efficacy of molecule 58 in directly binding to REGγ, inventors conducted a thermal shift assay (TSA). TSA leverages the property of proteins to undergo unfolding at specific temperatures, and the interaction with a ligand can alter the thermal stability, leading to a shift in the unfolding temperature. In their study, inventors examined how the compound 58 interacted with REGγ and monitored the change in melting temperature (ΔTm)."}, "[2]": {"details": "5µm to 25 µM, compared to DMSO control"}}}
{"smiles": "Cc1ccc(N=Nc2ccc(C)cc2NC(=O)Nc2ccccc2F)cc1", "note": "[compound 58]", "values": [{"measurement": "inhibition of the 20S core alone", "setting": "20S proteasome", "value": "without inhibiting the 20S core alone"}, {"measurement": "presentation of the SIINFEKL peptide (Kb-SIINFEKL complexes on the cell surface)", "setting": "[1]; 25µM, 25-D1.16 antibody, compared to untreated cells", "value": "significant increase"}, {"measurement": "expression of H2-D^b molecules on the cell surface", "setting": "[1]; [2]", "value": "dose-dependent increase"}, {"measurement": "expression of H2-K^b molecules on the cell surface", "setting": "[1]; [2]", "value": "dose-dependent increase"}, {"measurement": "PD-L1 expression on the cell surface", "setting": "[1]; varying concentrations, dose-dependent manner", "value": "significantly increased PD-L1 expression"}, {"measurement": "inhibition of the effect of REGγ on proteasomal protein degradation", "setting": "20S-REGγ complex", "value": "inhibit the effect of REGγ on proteasomal protein degradation"}, {"measurement": "change in melting temperature (ΔTm)", "setting": "REGγ", "value": "substantial increase in ΔTm"}]}
